Assay results published in patent publication US11459397B2, “Self-crosslinking antibodies” (Meditope Biosciences, Inc., priority 2016, dated 2022).

What was measured:
[1] = system: HER2 expressing SK-OV-3-Luc ovarian xenograft; test: efficacy in SK-OV-3-Luc ovarian xenograft subcutaneous model; assay type: in vivo, mice; conditions: 20 mg/kg ip BIW, day 52 pi
Experimental: This study was performed to evaluate the efficacy of ADC constructs against HER2 expressing SK-OV-3-Luc ovarian xenograft subcutaneous model using both bioluminescent imaging and traditional tumor caliper measurement. Sixty-five female athymic nudes, 4 weeks old of age were obtained from Charles River. SK-OV-3-Luc cells were expanded using standard tissue culture technique. On the day of implantation, 2.5×10^6 cells in incomplete media with 30% matrigel were implanted to the right lower flank of each mouse. Animals were stratified into 7 groups of 8 mice for treatment based on the total flux (Perkin Elmer IVIS Lumina XRMS II) at day 10 pi. Animals were weighed twice weekly in conjunction with tumor measurements. Bioluminescent Imaging were performed once a week. Tumor mass were calculated using the following formula: Mass (mg)=Tumor volume (mm^3)=d^2×D/2, where d and D are the shortest and longest diameter in mm, respectively.

[2] = biological target: cetuximab Fab fragment; test: meditope binding to cetuximab Fab; conditions: meditope-binding site within the central cavity of the cetuximab Fab fragment; read-out: binding constant
Text: In some examples, the meditope-binding site is a structural feature of the monoclonal antibody cetuximab. Thus, in some cases, the meditope-binding site contains residues corresponding to those within the meditope binding site of cetuximab.

[3] = modulation of self-crosslinking by free meditope, silver-stained native gel; assay type: physicochemical; conditions: 1 μM free meditope, 100 nM SnAP-body variants 1, 2, 3
[4] = system: CLL; conditions: Phase I, cited from earlier work
[5] = 46 heavily pretreated CLL patients, single agent

Sequence of cetuximab Fab fragment (as listed by the source, other chains not shown): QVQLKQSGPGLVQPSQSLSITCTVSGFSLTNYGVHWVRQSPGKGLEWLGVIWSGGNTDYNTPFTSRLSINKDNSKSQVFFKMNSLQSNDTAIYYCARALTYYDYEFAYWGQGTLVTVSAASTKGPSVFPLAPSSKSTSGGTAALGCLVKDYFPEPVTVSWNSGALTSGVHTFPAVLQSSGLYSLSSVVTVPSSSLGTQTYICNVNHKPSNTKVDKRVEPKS

## CC(=O)O[C@H]1C(=O)[C@@]2(C)[C@H]([C@H](OC(=O)c3ccccc3)[C@]3(O)C[C@H](OC(=O)[C@H](O)[C@@H](NC(=O)c4ccccc4)c4ccccc4)C(C)=C1C3(C)C)[C@]1(OC(C)=O)CO[C@@H]1C[C@@H]2O [Paclitaxel]
[1]
  TGI: 2.80%

## C-QFDLSTRRLK-C [cQFD meditope]
[2]
  Kd: ~700 nM
[3]
  effect of free meditope on antibody self-crosslinking: can interfere with the self-crosslinking ability of self-crosslinking antibodies

## lumiliximab: primatized anti-CD23 mAb that contains cynomolgus macaque variable regions and human constant regions (IgG1-κ)
[4]; [5]
  objective Complete Responses (CRs) or Partial Responses (PRs): no objective Complete Responses (CRs) or Partial Responses (PRs) were observed
  patients with decreased peripheral blood lymphocyte counts: 91 % of patients
  patients with reduced enlarged lymph node size: 52 % of patients
[4]; CLL patients
  MTD (maximum tolerated dose): not reached
  adverse events (AEs): majority of adverse events (AEs) are limited to grade 1/2
  immunosuppression: not immunosuppressive
